Like-named read-outs stand apart in the source and are kept apart here.
Assays:
Assay in all cases: TGFα-shedding assay-based GPCR screening with chimeric Gα subunit proteins
Assay type in all cases: cell-based
348 GPCRs [1] = target: T1, 348 GPCRs (Homo sapiens, UniProt Q92633); conditions: 10µM, Favipiravir 100μM
T1 construct: expressed in transfected cells; host or cells: HEK293A

348 GPCRs [2] = target: T2, 348 GPCRs (Homo sapiens, UniProt P47893); conditions: 10µM, Favipiravir 100μM
T2 construct: expressed in transfected cells; host or cells: HEK293A
T2 sequence (P47893 1-321): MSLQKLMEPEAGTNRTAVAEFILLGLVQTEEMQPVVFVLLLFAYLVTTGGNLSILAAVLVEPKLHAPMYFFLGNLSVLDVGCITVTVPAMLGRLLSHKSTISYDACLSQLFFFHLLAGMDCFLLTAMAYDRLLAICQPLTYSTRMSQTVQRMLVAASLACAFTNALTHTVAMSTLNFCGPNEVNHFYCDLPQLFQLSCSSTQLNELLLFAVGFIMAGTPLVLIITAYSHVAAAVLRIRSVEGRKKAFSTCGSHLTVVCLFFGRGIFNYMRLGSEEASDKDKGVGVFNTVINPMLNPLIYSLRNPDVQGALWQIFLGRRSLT

348 GPCRs [3] = target: T3, 348 GPCRs (Homo sapiens, UniProt P46089); conditions: 10µM, Favipiravir 100μM
T3 construct: expressed in transfected cells; host or cells: HEK293A
T3 sequence (P46089 whole entry): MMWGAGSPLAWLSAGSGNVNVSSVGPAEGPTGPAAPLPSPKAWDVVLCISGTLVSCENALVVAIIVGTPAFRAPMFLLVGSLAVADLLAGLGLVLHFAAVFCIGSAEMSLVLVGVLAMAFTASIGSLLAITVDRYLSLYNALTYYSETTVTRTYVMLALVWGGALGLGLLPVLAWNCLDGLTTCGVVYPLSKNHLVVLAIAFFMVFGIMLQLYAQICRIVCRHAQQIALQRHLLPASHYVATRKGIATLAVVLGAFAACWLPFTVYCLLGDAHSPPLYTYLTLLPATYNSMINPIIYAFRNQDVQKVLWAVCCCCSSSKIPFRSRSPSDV

348 GPCRs [4] = target: T4, 348 GPCRs (Homo sapiens, UniProt Q96P69); conditions: 10µM, Favipiravir 100μM
T4 construct: expressed in transfected cells; host or cells: HEK293A
T4 sequence (Q96P69 whole entry): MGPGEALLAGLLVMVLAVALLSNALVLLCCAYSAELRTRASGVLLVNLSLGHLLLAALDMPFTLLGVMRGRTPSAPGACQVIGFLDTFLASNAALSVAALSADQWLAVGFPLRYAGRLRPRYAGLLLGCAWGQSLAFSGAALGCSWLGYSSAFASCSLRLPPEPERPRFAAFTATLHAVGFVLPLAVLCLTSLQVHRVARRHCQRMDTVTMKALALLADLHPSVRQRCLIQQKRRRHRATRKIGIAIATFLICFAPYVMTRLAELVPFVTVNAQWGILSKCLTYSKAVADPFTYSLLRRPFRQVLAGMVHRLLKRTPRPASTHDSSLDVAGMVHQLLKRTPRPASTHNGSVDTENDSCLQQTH

348 GPCRs [5] = target: T5, 348 GPCRs (Homo sapiens, UniProt P46663); conditions: 10µM, Favipiravir 100μM
T5 construct: expressed in transfected cells; host or cells: HEK293A
T5 sequence (P46663 1-353): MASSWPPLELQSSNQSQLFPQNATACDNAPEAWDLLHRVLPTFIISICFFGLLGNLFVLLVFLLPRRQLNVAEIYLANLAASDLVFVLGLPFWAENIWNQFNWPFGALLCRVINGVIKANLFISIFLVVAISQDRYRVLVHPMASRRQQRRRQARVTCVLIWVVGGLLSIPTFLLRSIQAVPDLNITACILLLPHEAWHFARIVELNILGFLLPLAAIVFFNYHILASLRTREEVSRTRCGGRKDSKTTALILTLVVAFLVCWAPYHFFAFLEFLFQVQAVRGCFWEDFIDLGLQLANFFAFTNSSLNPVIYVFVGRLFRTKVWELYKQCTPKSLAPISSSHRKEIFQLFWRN

348 GPCRs [6] = target: T6, 348 GPCRs (Homo sapiens, UniProt Q8NFJ5); conditions: 10µM, Favipiravir 100μM
T6 construct: expressed in transfected cells; host or cells: HEK293A
T6 sequence (Q8NFJ5 whole entry): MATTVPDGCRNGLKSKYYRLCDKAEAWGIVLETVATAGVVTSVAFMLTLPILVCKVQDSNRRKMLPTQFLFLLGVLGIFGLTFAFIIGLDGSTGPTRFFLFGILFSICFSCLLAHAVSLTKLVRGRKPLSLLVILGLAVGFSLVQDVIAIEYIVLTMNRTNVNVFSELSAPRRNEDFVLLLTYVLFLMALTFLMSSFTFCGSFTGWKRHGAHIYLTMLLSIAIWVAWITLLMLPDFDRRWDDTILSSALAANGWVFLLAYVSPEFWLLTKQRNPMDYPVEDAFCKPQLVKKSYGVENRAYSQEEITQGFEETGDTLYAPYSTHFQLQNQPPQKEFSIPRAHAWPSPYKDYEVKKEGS

348 GPCRs [7] = target: T7, 348 GPCRs (Homo sapiens, UniProt P04000); conditions: 10µM, Favipiravir 100μM
T7 construct: expressed in transfected cells; host or cells: HEK293A
T7 sequence (P04000 1-364): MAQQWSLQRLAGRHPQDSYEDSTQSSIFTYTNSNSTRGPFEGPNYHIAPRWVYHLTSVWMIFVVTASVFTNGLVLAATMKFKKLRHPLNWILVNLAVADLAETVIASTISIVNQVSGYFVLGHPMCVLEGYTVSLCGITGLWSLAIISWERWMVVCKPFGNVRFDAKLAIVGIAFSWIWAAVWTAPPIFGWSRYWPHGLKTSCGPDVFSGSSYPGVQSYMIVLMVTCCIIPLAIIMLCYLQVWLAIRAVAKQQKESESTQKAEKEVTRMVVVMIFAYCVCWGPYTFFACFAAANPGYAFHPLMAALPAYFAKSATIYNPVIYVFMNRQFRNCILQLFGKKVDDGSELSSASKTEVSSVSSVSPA

348 GPCRs [8] = target: T8, 348 GPCRs (Homo sapiens, UniProt O15218); conditions: 10µM, Favipiravir 100μM
T8 construct: expressed in transfected cells; host or cells: HEK293A
T8 sequence (O15218 whole entry): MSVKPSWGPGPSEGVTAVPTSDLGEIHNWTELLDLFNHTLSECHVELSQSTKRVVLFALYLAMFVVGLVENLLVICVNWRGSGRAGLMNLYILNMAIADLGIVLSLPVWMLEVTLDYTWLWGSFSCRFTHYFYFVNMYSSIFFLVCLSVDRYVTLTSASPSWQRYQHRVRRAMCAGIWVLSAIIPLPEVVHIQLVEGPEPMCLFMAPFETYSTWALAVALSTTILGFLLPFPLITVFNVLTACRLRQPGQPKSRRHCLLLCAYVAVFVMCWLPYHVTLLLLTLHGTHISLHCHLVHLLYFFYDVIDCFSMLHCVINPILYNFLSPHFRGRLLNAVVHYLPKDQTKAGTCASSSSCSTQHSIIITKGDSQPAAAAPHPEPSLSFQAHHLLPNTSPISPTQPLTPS

348 GPCRs [9] = target: T9, 348 GPCRs (Homo sapiens, UniProt Q8IZF3)
T9 construct: expressed in transfected cells; host or cells: HEK293A
T9 sequence (Q8IZF3 22-695): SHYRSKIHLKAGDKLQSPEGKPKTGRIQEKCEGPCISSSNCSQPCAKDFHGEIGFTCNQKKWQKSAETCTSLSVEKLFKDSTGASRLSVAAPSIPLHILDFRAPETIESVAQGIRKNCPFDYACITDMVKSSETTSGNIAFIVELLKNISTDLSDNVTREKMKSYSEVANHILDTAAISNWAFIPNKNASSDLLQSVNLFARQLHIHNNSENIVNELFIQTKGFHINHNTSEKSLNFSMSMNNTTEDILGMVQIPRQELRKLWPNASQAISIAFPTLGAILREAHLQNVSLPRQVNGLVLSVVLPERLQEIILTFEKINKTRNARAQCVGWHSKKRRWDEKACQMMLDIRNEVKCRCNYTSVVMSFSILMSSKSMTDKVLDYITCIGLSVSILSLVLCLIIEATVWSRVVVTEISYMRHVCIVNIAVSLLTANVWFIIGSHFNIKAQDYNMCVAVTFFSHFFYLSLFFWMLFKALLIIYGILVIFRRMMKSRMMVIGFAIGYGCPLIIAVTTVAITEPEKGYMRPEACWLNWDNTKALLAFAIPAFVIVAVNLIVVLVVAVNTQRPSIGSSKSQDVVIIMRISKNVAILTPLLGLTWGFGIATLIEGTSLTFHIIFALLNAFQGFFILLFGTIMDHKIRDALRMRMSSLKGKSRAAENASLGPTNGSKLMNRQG

348 GPCRs [10] = target: T10, 348 GPCRs (Homo sapiens, UniProt Q99705)
T10 construct: expressed in transfected cells; host or cells: HEK293A
T10 sequence (Q99705 whole entry): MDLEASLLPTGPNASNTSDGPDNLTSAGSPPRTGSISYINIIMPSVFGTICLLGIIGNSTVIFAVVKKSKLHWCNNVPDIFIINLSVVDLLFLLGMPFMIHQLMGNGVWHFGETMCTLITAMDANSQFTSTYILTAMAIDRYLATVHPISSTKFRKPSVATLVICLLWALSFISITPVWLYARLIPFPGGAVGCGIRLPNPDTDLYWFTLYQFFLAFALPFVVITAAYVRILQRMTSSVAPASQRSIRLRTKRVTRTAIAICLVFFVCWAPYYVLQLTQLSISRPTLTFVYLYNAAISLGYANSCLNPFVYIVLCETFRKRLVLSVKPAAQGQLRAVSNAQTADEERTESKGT

348 GPCRs [11] = target: T11, 348 GPCRs (Homo sapiens, UniProt Q6NV75); conditions: 10µM, Favipiravir 100μM
T11 construct: expressed in transfected cells; host or cells: HEK293A
T11 sequence (Q6NV75 whole entry): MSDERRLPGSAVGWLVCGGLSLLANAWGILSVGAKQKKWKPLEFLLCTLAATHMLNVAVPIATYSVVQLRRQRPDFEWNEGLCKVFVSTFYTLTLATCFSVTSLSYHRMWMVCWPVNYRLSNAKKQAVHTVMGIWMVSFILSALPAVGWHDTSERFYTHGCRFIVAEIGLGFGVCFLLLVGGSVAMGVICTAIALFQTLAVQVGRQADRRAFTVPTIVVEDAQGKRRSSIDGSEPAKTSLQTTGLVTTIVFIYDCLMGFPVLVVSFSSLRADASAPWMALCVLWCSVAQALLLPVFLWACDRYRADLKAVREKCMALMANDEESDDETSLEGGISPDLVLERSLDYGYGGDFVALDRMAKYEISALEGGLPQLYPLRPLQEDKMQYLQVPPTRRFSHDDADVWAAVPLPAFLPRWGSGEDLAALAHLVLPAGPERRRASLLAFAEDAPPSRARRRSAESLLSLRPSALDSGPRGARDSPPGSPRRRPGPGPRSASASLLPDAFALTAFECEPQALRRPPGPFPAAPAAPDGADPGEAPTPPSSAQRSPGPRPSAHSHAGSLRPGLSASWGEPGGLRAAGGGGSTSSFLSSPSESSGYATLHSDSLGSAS

[12] = LPAR1 (lysophosphatidic acid receptor 1), read-out: % GPCR activation compared to TPA
[13] = OR3A2 (olfactory receptor, family 3, subfamily A, member 2), read-out: % GPCR activation compared to TPA
[14] = GPR3 (G protein-coupled receptor 3), read-out: % GPCR activation compared to TPA
[15] = GPR78 (G Protein-Coupled Receptor 78), read-out: % GPCR activation compared to TPA
[16] = B1 (bradykinin receptor B1), read-out: % GPCR activation compared to TPA
[17] = GPRC5A (G protein-coupled receptor class C group 5 member A), read-out: % GPCR activation compared to TPA
[18] = OPN1LW (opsin 1 (cone pigments), long-wave-sensitive), read-out: % GPCR activation compared to TPA
[19] = GPR182 (G protein-coupled receptor 182), read-out: % GPCR activation compared to TPA
[20] = GPCR GPR115 (G-protein-coupled receptor 115 (ADGRF4)), read-out: % GPCR activation compared to TPA
[21] = GPCR MCHR1 (melanin concentrating hormone receptor 1), read-out: % GPCR activation compared to TPA
[22] = GPR153 (G protein-coupled receptor 153), read-out: % GPCR activation compared to TPA
[23] = read-out: % GPCR activation compared to TPA, LPAR1 (lysophosphatidic acid receptor 1)
[24] = read-out: % GPCR activation compared to TPA, OR3A2 (olfactory receptor, family 3, subfamily A, member 2)
[25] = read-out: % GPCR activation compared to TPA, GPR3 (G protein-coupled receptor 3)
[26] = read-out: % GPCR activation compared to TPA, GPR78 (G Protein-Coupled Receptor 78)
[27] = read-out: % GPCR activation compared to TPA, B1 (bradykinin receptor B1)
[28] = read-out: % GPCR activation compared to TPA, GPRC5A (G protein-coupled receptor class C group 5 member A)
[29] = read-out: % GPCR activation compared to TPA, OPN1LW (opsin 1 (cone pigments), long-wave-sensitive)
[30] = read-out: % GPCR activation compared to TPA, GPR182 (G protein-coupled receptor 182)
[31] = read-out: % GPCR activation compared to TPA, GPCR GPR115 (G-protein-coupled receptor 115 (ADGRF4))
[32] = read-out: % GPCR activation compared to TPA, GPCR MCHR1 (melanin concentrating hormone receptor 1)
[33] = read-out: % GPCR activation compared to TPA, GPR153 (G protein-coupled receptor 153)

T1 sequence (Q92633 whole entry): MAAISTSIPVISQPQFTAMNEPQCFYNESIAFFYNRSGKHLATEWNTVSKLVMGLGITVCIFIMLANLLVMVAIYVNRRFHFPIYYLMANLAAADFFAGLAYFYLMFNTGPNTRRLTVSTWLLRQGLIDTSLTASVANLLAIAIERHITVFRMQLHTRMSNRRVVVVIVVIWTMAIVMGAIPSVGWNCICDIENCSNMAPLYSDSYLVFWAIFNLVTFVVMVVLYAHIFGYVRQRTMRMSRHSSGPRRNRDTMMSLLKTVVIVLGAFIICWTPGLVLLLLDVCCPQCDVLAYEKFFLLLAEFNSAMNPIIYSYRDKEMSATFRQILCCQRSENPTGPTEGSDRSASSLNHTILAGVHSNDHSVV

Structure (SMILES): N#C[C@@]1(c2ccc3c(N)ncnn23)O[C@H](CO)[C@@H](O)[C@H]1O [GS441524]
- activation at 10 µM (348 GPCRs [1]; [12]): 1.19%
- activation at 10 µM (348 GPCRs [2]; [13]): -9.89%
- activation at 100 µM (348 GPCRs [3]; [14]): 7.48%
- activation at 100 µM (348 GPCRs [4]; [15]): 0.894%
- activation at 10 µM (348 GPCRs [5]; [16]): 1.31%
- activation at 100 µM (348 GPCRs [6]; [17]): 6.76%
- activation at 100 µM (348 GPCRs [7]; [18]): -0.985%
- activation at 100 µM (348 GPCRs [8]; [19]): 0.124%
- activation at 10 µM (348 GPCRs [9]; [20]): -3.61%
- activation at 10 µM (348 GPCRs [10]; [21]): -1.77%
- activation at 10 µM (348 GPCRs [11]; [22]): -3.34%

Structure (SMILES): CC(C)OC(=O)[C@H](C)N[P@](=O)(OC[C@H]1O[C@@H](n2ccc(=O)[nH]c2=O)[C@](C)(F)[C@@H]1O)Oc1ccccc1 [sofosbuvir]
- activation at 10 µM (348 GPCRs [1]; [23]): 3.41%
- activation at 10 µM (348 GPCRs [2]; [24]): -1.07%
- activation at 100 µM (348 GPCRs [3]; [25]): -0.512%
- activation at 100 µM (348 GPCRs [4]; [26]): 2.01%
- activation at 10 µM (348 GPCRs [5]; [27]): -5%
- activation at 100 µM (348 GPCRs [6]; [28]): -9.13%
- activation at 100 µM (348 GPCRs [7]; [29]): -0.65%
- activation at 100 µM (348 GPCRs [8]; [30]): 0.0893%
- activation at 10 µM (348 GPCRs [9]; [31]): -1.19%
- activation at 10 µM (348 GPCRs [10]; [32]): -4.22%
- activation at 10 µM (348 GPCRs [11]; [33]): -14.2%

Structure (SMILES): CCC(CC)COC(=O)[C@H](C)N[P@](=O)(OC[C@H]1O[C@@](C#N)(c2ccc3c(N)ncnn23)[C@H](O)[C@@H]1O)Oc1ccccc1 [remdesivir]
- activation at 10 µM (348 GPCRs [1]; [23]): 0.719%
- activation at 10 µM (348 GPCRs [2]; [24]): -3.15%
- activation at 100 µM (348 GPCRs [3]; [25]): 9.85%
- activation at 100 µM (348 GPCRs [4]; [26]): 2.44%
- activation at 10 µM (348 GPCRs [5]; [27]): 8.43%
- activation at 100 µM (348 GPCRs [6]; [28]): 9.99%
- activation at 100 µM (348 GPCRs [7]; [29]): 0.199%
- activation at 100 µM (348 GPCRs [8]; [30]): 2.44%
- activation at 10 µM (348 GPCRs [9]; [31]): -1.78%
- activation at 10 µM (348 GPCRs [10]; [32]): -1.97%
- activation at 10 µM (348 GPCRs [11]; [33]): 4.65%

Structure (SMILES): CC(C)C(=O)OC[C@H]1O[C@@H](n2ccc(NO)nc2=O)[C@H](O)[C@@H]1O [molnupiravir]
- activation at 10 µM (348 GPCRs [1]; [12]): -1.42%
- activation at 10 µM (348 GPCRs [2]; [13]): -0.408%
- activation at 100 µM (348 GPCRs [3]; [14]): -0.728%
- activation at 100 µM (348 GPCRs [4]; [15]): -0.581%
- activation at 10 µM (348 GPCRs [5]; [16]): -3.36%
- activation at 100 µM (348 GPCRs [6]; [17]): -5.54%
- activation at 100 µM (348 GPCRs [7]; [18]): 0.884%
- activation at 100 µM (348 GPCRs [8]; [19]): 0.0693%
- activation at 10 µM (348 GPCRs [9]; [20]): -1.43%
- activation at 10 µM (348 GPCRs [10]; [21]): -2.69%
- activation at 10 µM (348 GPCRs [11]; [22]): -23.6%

Structure (SMILES): NC(=O)c1nc(F)cnc1O [favipiravir, 6-fluoro-3-hydroxy-2-pyrazinecarboxamide]
- activation at 10 µM (348 GPCRs [1]; [12]): 0.687%
- activation at 10 µM (348 GPCRs [2]; [13]): -0.0334%
- activation at 100 µM (348 GPCRs [3]; [14]): 3.58%
- activation at 100 µM (348 GPCRs [4]; [15]): -0.429%
- activation at 10 µM (348 GPCRs [5]; [16]): 5.17%
- activation at 100 µM (348 GPCRs [6]; [17]): 8.99%
- activation at 100 µM (348 GPCRs [7]; [18]): 0.263%
- activation at 100 µM (348 GPCRs [8]; [19]): -0.288%
- activation at 100 µM (348 GPCRs [9]; GPCR GPR115 (G-protein-coupled receptor 115 (ADGRF4)), 100μM, read-out: % GPCR activation compared to TPA): -2.79%
- activation at 100 µM (348 GPCRs [10]; GPCR MCHR1 (melanin concentrating hormone receptor 1), 100μM, read-out: % GPCR activation compared to TPA): -2.9%
- activation at 10 µM (348 GPCRs [11]; [22]): 0.731%

Source: PMC10175918 (Communications Biology, 2023)
